Assay results: patent US20140296164A1, “Compositions and methods of use for cell targeted inhibitors of the Cystic Fibrosis transmembrane regulator associated ligand” (CALISTA THERAPEUTICS, INC., priority 2013, published 2014)
“Also recorded” adds a separate entry of the source. No end group written: not given here.

Tests used:
deltaF508-CFTR [1] = conditions: cited from earlier work
[2] = Solubility of peptide sequences; format: physicochemical
deltaF508-CFTR [3] = assay: CFTR agonist evoked short circuit (ISC) current, Ussing epithelial voltage clamp; format: cell-based, human; conditions: for summed ISC currents compared with Vehicle treatment: apical, one day at 27° C., CFFT006F cells, Dunnett's test
From the text: To test for bioeffectiveness, for our exemplary invention to stabilize CFTR, we measured the chloride transport function homozygous deltaF508-CFTR cystic fibrosis human bronchial epithelial cells grown and differentiated on Snapwell™ filter inserts as CFTR agonist evoked short circuit (ISC) current. The ISC was the output of an Ussing epithelial voltage clamp apparatus after amiloride block of sodium current through the epithelial sodium channel (ENaC). ENaC current was monitored as the amiloride sensitive current component of the ISC. The objective of this study was to measure the ability of various compounds, including but limited to CT002, CT008, CT003, CT004, CT005, CT006, CT007, and AT0011 (peptide control), to restore function to defective deltaF508-CFTR in CFhBE cell monolayers (epithelia) after a one day incubation period on the apical surface of the epithelia. See FIG. 4 for sequences and ID numbers.
(§1) CT003, CT004, CT005, CT006, CT007, and AT0011 were combined with the known corrector VX-809. CT002 (WQVTRV) was incubated with 10 μL of the cell permeability enhancing reagent BioPORTER™. Statistical comparisons were made using Dunnett's test and Student's t-test with significance evaluated at P<0.05. The ISC current polarity convention used here records apical to basolateral sodium current and basolateral to apical chloride current as negative.
Referring now to the drawings, a first exemplary embodiment is illustrated and generally indicated in FIGS. 1, 2 and 3, which is the measurement of the chloride transport function of homozygous deltaF508-CFTR cystic fibrosis human bronchial epithelial cells grown and differentiated on Snapwell™ filter inserts as CFTR agonist evoked short circuit (ISC) current. The ISC was the output of an Ussing epithelial voltage clamp apparatus after amiloride block of sodium current through the epithelial sodium channel (ENaC). ENaC current was monitored as the amiloride sensitive current component of the ISC. The objective of this study was to measure the ability of candidate Test Articles and controls (CT002 (WQVTRV+BIOPORTER), CT008 (WQVTRV alone), CT003, CT004, CT005, CT006, CT007, and AT0011 control) to restore function to defective deltaF508-CFTR in CFhBE cell monolayers (epithelia) after a one day incubation period on the apical surface of the epithelia. These peptide compounds differed in their amino acid sequence to optimize solubility, intracellular permeability, stability and toxicity (CT003-CT007 shown here). The control peptides were non-optimized sequences (CT002 and CT008) and an off-target peptide control (AT0011).
as §1, with “VX-809 and” for “VX-809.”, “CT002” for “CT002 (WQVTRV)”, “used” for “used here”
All incubations were performed at 27±0.5° C. Test Articles were applied at their final concentrations to the apical surface of the cellular monolayers in 200 μL of Opti-MEM Reduced Serum Medium without addition of serum. […] Test Article incubations were approximately 24 hours. 150 μL of cycloheximide (20 μg/mL) was applied to the apical surface of the epithelia for the final 2 hours of peptide treatment, total volume 350 μL. Cycloheximide prevented new protein synthesis that might be otherwise conflated with test article efficacy. This incubation protocol mimics the dilution and clearance effect that will be encountered by topical delivery to the lungs. Test articles are applied at t=0 h, 10 μM in 200 μL, to the apical surface. 2000 μL of basolateral medium provides an immediate dilution effect (test article: 0.91 μM), then at t=22 h, a further […] of cycloheximide containing solution is further added, (test article: 0.85 μM). […]

[4] = system: epithelial sodium channel (ENaC); assay: Amiloride sensitive sodium current component of the ISC, Ussing assay; format: cell-based, human; conditions: Test Article 10 uM + VX-809 1 uM, Student's test
From the text: To test for bioeffectiveness, for our exemplary invention to stabilize CFTR, we measured the chloride transport function homozygous deltaF508-CFTR cystic fibrosis human bronchial epithelial cells grown and differentiated on Snapwell™ filter inserts as CFTR agonist evoked short circuit (ISC) current. The ISC was the output of an Ussing epithelial voltage clamp apparatus after amiloride block of sodium current through the epithelial sodium channel (ENaC). ENaC current was monitored as the amiloride sensitive current component of the ISC. […]
Referring now to the drawings, a first exemplary embodiment is illustrated and generally indicated in FIGS. 1, 2 and 3, which is the measurement of the chloride transport function of homozygous deltaF508-CFTR cystic fibrosis human bronchial epithelial cells grown and differentiated on Snapwell™ filter inserts as CFTR agonist evoked short circuit (ISC) current. […] ENaC current was monitored as the amiloride sensitive current component of the ISC. […]
Ussing Assay: All Ussing assays were performed at 27±0.5° C. and lasted for approximately 1 hour 40 minutes. The temperature was monitored throughout the experiment using a thermistor probe connected to the data acquisition system and inserted into the bath solution of one chamber. […]

[5] = Test Article 10 uM + VX-809 1 uM, Student's t-test

With ANSRWPTSII as the compound, how does the “function without BIOPORTER” value (deltaF508-CFTR [1]) read?
Its value is “neither sequence functions”.

Which results are given for WQVTRV [CT008, WQVTRV]?
solubility at the effective concentration ([2]; 500 μM): largely insoluble; solubility in water ([2]; water / aqueous fluids): insoluble in water

For `Cc1ccc(NC(=O)C2(c3ccc4c(c3)OC(F)(F)O4)CC2)nc1-c1cccc(C(=O)O)c1` [VX-809, reference compound], which “summed ISC currents compared with Vehicle treatment” value (deltaF508-CFTR [3]; VX-809 1 μM alone) is on record?
Its value is “significantly above Vehicle treatment”.

And the “summed ISC currents compared with expected level” value (deltaF508-CFTR [3]; VX-809 1 μM, apical incubation only, not in basolateral media)?
The value was “less than the expected level”.

With “Acety-YGRKKRRQRRR-glycoyl-WQVTRV-amide (Ac-YGRKKRRQRRR; not fully specified (C-terminus)) [CT007]” as the compound, how does the “lower concentration needed versus prior sequences with BIOPORTER” value (deltaF508-CFTR [3]; 10 μM CT007 vs 500 μM WQVTRV) read?
Its value is greater than 50 times.

And the “improvement in reported efficacy versus WQVTRV and ANSRWPTSII with BIOPORTER” value (deltaF508-CFTR [3]; 10 uM vs 500 μM, at least)?
The value was “fifty-fold”.

What about the “additive efficacy to VX-809” value (deltaF508-CFTR [3]; CT007 10 uM + VX-809 1 uM, CF bronchial epithelium, n=4) of the same compound?
The value was 36%.

And the “response to CFTRinh-172 compared with VX-809 1 uM” value (deltaF508-CFTR [3]; [5])?
Its value is “significantly increased”.

What about the “summed ISC currents (CFTR chloride current restoration) compared with VX-809 1 μM treatment” value (deltaF508-CFTR [3]; [5]) of the same compound?
The value was “significantly greater; also recorded: significantly above VX-809 1 μM treatment”.

What about the “summed ISC currents compared with Vehicle treatment” value (deltaF508-CFTR [3]; Test Article 10 uM + VX-809 1 uM) of the same compound?
Its value is “significantly above Vehicle treatment”.

What about the “duration of therapeutic drug action” value (deltaF508-CFTR [3]; after transient topical apical dosing, test article removed before Ussing assay) of the same compound?
Its value is “at least 26 hours”.

What about the “amiloride sensitive sodium current generated by ENaC compared to VX-809 alone” value [4] of the same compound?
Its value is “significantly increased”.
